According to US5948635A, “Totally Synthetic Affinity Reagents” (University of North Carolina at Chapel Hill, priority 1995, dated 1999):
pIC50: −log10 of the molar value.

Experiments:
streptavidin = biological target: T1, streptavidin (Streptomyces avidinii, UniProt P22629); assay: Inhibition of TSAR binding to streptavidin by biotin and biotin analogs; conditions: for pIC50: representative TSARs SA-1, -2, -4 and -14
T1 construct: purchased Advanced Magnetics, Cambridge, Mass
Description: Specificity of the binding of the identified proteins for streptavidin was investigated by evaluating inhibition of binding by biotin and by a number of biotin analogs, including diaminobiotin, immunobiotin, lipoic acid and imidazalidone. Four representative TSARs, pictured in Table 9, were evaluated, i.e., SA-1,-2, -4 and -14 (SEQ ID NOs. 116, 114, 104 and 117).

[1] = Immobilized metal affinity chromatography of phage on Zn(II)-IDA; type: binding; conditions: for relative retention by Zn(II)-IDA: comparison of four clones
Description: The TSAR-9 random peptide library was subjected to IMAC chromatography as follows: 0.5 ml bed volume iminodiacetic acid (IDA) Sepharose (Sigma Chemical Co.) columns were washed with 1 ml of sterile doubly distilled (dd) H2 O, charged with 5 ml of 10 mM ZnCl2 in dd H2 O followed by 3 ml sterile dd H2 O and equilibrated with 10 ml 10 mM Tris-HCl, 150 mM NaCl, 0.1% Tween-20, pH 7.5 (T10NT) to prepare the Zn(II) IDA column. 10^12 pfu of the TSAR-9 random peptide library were passed over the Zn(II) IDA column and washed with 10 ml T10NT. Bound phage were eluted with 500 μl 200 mM glycine-HCl, pH 2.2 and the pH was then neutralized with 500 μl 1 M phosphate buffer, pH 7.5+1 ml T10NT. Eluted phage were subjected to two further rounds of selection and the resulting population was amplified by overnight growth on a lawn of E. coli DH5αF'.
To quantitate the relative binding of the Zn(II)-IDA selected TSARs, each TSAR encoding phage was chromatographed over Zn(II)-IDA. Three fractions were collected and titered for phage: wash (unbound), elution (bound, eluted), and column (bound, not eluted).
The binding specificity of a number of the identified Zn-binding proteins was evaluated by chromatography using IDA columns charged with Zn^+2, Cu^+2 or Ni^+2. A particular Zn-binding phage (10×10^11 pfu) in 1 ml of 100 mM Tris-HCl, 150 mM NaCl, 0.1% Tween-20, pH 7.5 (T100NT) was loaded onto a Zn(II)-, Cu(II)- or Ni(II)-IDA column and the columns were washed as described above, except that T100NT was substituted for T10NT. The columns were eluted with acid; Zn^+2 (2 ml 100 mM ZnCl2 in T1OONT, pH 7.5), or imidazole (2 ml 100 mM imidazole in T100NT, pH 7.5). Three fractions were collected and titered for the presence of phage: the wash fraction (.box-solid.), the elution fraction and the metal II-IDA column matrix resuspended in T10NT (.quadrature.).Results obtained are shown in FIG. 16 A and B.

C46 monoclonal antibody = assay: Competition of CEA with phage for binding to immobilized C46 antibody; set-up: species or system mouse; conditions: CEA 1, 25, 250, 2500 ng; FIG. 17
Description: Microtiter dish wells were coated with 50 μl of the C46 monoclonal antibody (5 μg/ml in 100 mM NaHCO3, pH 8.5) for 2 hr at 4° C. To the wells, 50 μl of BSA (1 mg/ml in 100 mM NaHCO3, pH 8.5) were added and the wells incubated for 30 min. at room temperature. The wells were washed (5×) with PBS-0.05% Tween 20.
To each well was added either 25 μl of C46-binding phage (C46.9-1 or C46.9-2) and increasing amounts of highly purified CEA (1, 25, 250, 2500 ng) (Scripps Clinic). After 2 hr incubation at room temperature, the wells were washed (10×) with PBS-0.05% Tween 20. 25 μl of 200 mM glycine-HCl (pH 2.2) were then added to the wells and they were incubated at room temperature for 5 min. The liquid was then transferred to new microtiter dish wells that contained 50 μl of 1M NaHPO4. The contents of the well were then serially diluted and aliquots were plated to count plaques.

7E11-C5 antibody = assay: Relative affinity: phage binding to microtiter plates coated with differing amounts of 7E11-C5; set-up: species or system mouse; conditions: plates coated with 0, 4, 20, 100 and 500 ng antibody
Description: The relative affinity of the different 7E11-C5 binding TSARs for the 7E11-C5 antibody was compared. Microtiter plates were coated with differing amounts of the antibody (i.e., 0, 4, 20, 100 and 500 ng) prior to phage binding. Our prediction was that the TSAR with the highest affinity for the antibody would still bind effectively to wells coated with lower amounts of antibody. […] These TSARs all have Y as the second amino acid in the motif. The next class of TSARs bound ~2-fold less well; as represented by 12-2, which also had Y as the second amino acid. Three TSARs bound 5-10 fold less well than the best binders as represented by 9-2, 9-4, and 12-4; their inserts had W or H at the second position of the motif. Finally, TSAR 12-3 bound 50-fold less well than the best binders; this TSAR has I and R in the second and sixth positions, respectively. Thus, it seems that the 7E11-C5 epitope can be mimicked by a linear peptide sequence that has both variant and invariant residues.

[2] = test system: 7E11-C5 monoclonal antibody; assay: Competitive binding ELISA: inhibition of 7E11-C5 binding to LNCaP cell lysate antigen; set-up: species or system mouse; conditions: phage 6.3×10^7 to 6.3×10^11 pfu; 7E11-C5 30 ng/ml
Description: Each well of a polyvinylchloride 96-well ELISA plate (Cooke, Alexandria, Va.) was coated with an LNCAP human prostate carcinoma cell (ATCC # CRL 1740) lysate. Lysates were prepared by harvesting confluent LNCaP cell cultures, resuspending cells in 4 volumes of 1 mM MgCl2 for 5 minutes, mixing with 2 μg of DNase (Boehringer Mannheim, Indianapolis, Ind.) and homogenizing using 40 strokes in a Dounce homogenizer (Wheaton, Millville, N.J.). LNCaP lysate (50 μl per well of a 1:50 dilution in 0.1×PBS [Dulbecco's pH 7.2, JRH, Denver, Pa.]) was air dried overnight at 37° C. onto wells of the ELISA plate. ELISA plates were blocked with 150 μl/well of 1% BSA (Pentex Fraction V, Miles, Kankakee, Ill.) in PBS for 60 minutes at room temperature.
The blank control consisted of blocking solution in the absence of primary antibody. 7E11-C5 monoclonal antibody pre-incubated with buffer without any phage (MAb) was the positive control. The expression vector m663 phage was also employed as a non-specific phage control.
Plates were washed 4 times with 0.05% Tween-20 in PBS. Bound monoclonal antibody 7E11-C5 was detected by: (1) incubating with 50 μl/well of anti-mouse IgG1 -HRP (Fisher Biotech, Orangeburg, N.Y.) diluted to 0.4 ng/ml in 1% BSA-PBS, for 60 minutes at room temperature; (2) washing plates 6 times with 0.05% Tween-20 in PBS; and (3) adding 100 μl/well ABTS substrate [200 μl ABTS, (Boehringer Mannheim), 10 ml citrate buffer (pH 4), 10 μl H2 O2 ]. Optical density of the reactions products was determined by endpoint analysis on a Multiscan plate reader (Molecular Devices, Menlo Park, Calif.). The competitive inhibition (%) was determined by comparing the reactivity of the positive control to the test samples.
The TSAR-based peptide (SEQ ID NO 31) concentration ranged from 1.75 to 1130 nM. […] Two additional control peptides (amide form) having the following amino acid sequences: RGD-21: NH2 -[…]-CONH2 (SEQ ID NO 32) and CYT-379: NH2 -[…]-CONH2 (SEQ ID NO 33) were also evaluated. Herein these control peptides are referred to as Control Peptide 1 and Control Peptide 2. […] The B139 monoclonal antibody, which is a murine IgG1 monoclonal antibody that reacts with all human epithelial cells, recognizes a different antigen in the LNCaP extract from that recognized by the 7E11-C5 antibody. The control B139 monoclonal antibody was used at a concentration of 9 ng/ml. The results obtained are illustrated in FIG. 13.

T1 sequence (P22629 25-183): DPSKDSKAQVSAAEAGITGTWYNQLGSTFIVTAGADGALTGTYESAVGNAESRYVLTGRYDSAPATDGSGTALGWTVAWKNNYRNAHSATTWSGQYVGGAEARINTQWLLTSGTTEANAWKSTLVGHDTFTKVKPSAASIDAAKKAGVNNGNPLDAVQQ

O=C(O)CCCC[C@@H]1CCSS1 (racemic) [lipoic acid]
pIC50 (streptavidin): ~2.98

N[C@@H]1[C@H](CCCCC(=O)O)SC[C@@H]1N [diaminobiotin]
pIC50 (streptavidin): ~6.70

N=C1N[C@H]2[C@H](CS[C@H]2CCCCC(=O)O)N1 [immunobiotin]
pIC50 (streptavidin): ~5.52

ATEQHYWTQYHKPYHPSVPGFHVKSVTETTDHWESRNG [Zn1B8]
relative retention by Zn(II)-IDA [1]: exhibit the least retention | retention on Zn(II)-IDA, of recovered phage [1]: 85%

CNFRGQCVSAPQTSNSKSPGWDTTWHDFRKEQFYNLTS [C46-9.2]
competition with CEA for binding to the C46 antibody (C46 monoclonal antibody): competitive binding

FDHTYSGPVCVKNGGLVSPGVLS MYNRLH SDGGPSLAS [7E11.9-3]
relative binding to 7E11-C5 (fold less well than the best binders) (7E11-C5 antibody): bound the best

HSYHDVATTKPGSHCMHNPGHPPPPNCHMAKAHSHNRI [Zn1A12]
relative retention by Zn(II)-IDA [1]: exhibit the least retention

IAHRVVAYNSLDSNPIWLPGEESSSVFGDY HPMF RAPV [SA-4]
inhibition of TSAR binding to streptavidin by biotin and all the biotin analogs tested (streptavidin): completely inhibited

IDMPETAST MYNMLH RNEPGGRKLSPPANDMPPALLKR [7E11.9-5]
inhibition of 7E11-C5 binding to its antigen by phage [2]: inhibited the binding of 7E11-C5 monoclonal antibody to its antigen, in a dose dependent fashion | relative binding to 7E11-C5 (fold less well than the best binders) (7E11-C5 antibody): bound the best

NAVRVDSGYPPNPNTFHLPGCIDVLSSGCRLFSAHSEY [C46-9.1]
competition with CEA for binding to the C46 antibody (C46 monoclonal antibody): competitive binding

PDYDLMSSTCRFYGCSKMPGGVAVNGLFAVQGHSKYSS [SA-1]
inhibition of TSAR binding to streptavidin by biotin and all the biotin analogs tested (streptavidin): completely inhibited

PVQKEYGFFMSGAS MIRLLR ETP [7E11.12-3]
relative binding to 7E11-C5 (fold less well than the best binders) (7E11-C5 antibody): 50 fold

QKGGPGLLLYGGDS MWITLH EPG [7E11.12-4]
relative binding to 7E11-C5 (fold less well than the best binders) (7E11-C5 antibody): 5-10 fold

RDSAVENPSVGGEIP MYRYLH QR [7E11.12-2]
relative binding to 7E11-C5 (fold less well than the best binders) (7E11-C5 antibody): ~ 2 fold

RLGNVWRVEGGG MYQQLH HNFPX^2 [7E11.12-1]
inhibition of 7E11-C5 binding to its antigen by phage [2]: inhibited the binding of 7E11-C5 monoclonal antibody to its antigen, in a dose dependent fashion | relative binding to 7E11-C5 (fold less well than the best binders) (7E11-C5 antibody): bound the best

SSCAYARYVPLLLLLYANPG MYSRLH SPAVRPLTQSSA [7E11.9-1]
inhibition of 7E11-C5 binding to its antigen by phage [2]: also inhibited 7E11-C5 monoclonal antibody binding | relative binding to 7E11-C5 (fold less well than the best binders) (7E11-C5 antibody): bound the best

SVQFKSISSRSMDDVVKDPGPKPA MWKMLH SKNPFTLS [7E11.9-2]
relative binding to 7E11-C5 (fold less well than the best binders) (7E11-C5 antibody): 5-10 fold

TVAT MHDTLH SAPGSGNLPGSYDIKPIFKASGALHSTX^2 [7E11.9-4]
relative binding to 7E11-C5 (fold less well than the best binders) (7E11-C5 antibody): 5-10 fold

YDHHSYNGDMHYPGWPPLPGPHHFAPIDVTTHSHTQPD [Zn1A1]
retention on Zn(II)-IDA, of recovered phage [1]: 15%

imidazalidone
pIC50 (streptavidin): ~2.30
